Data taken from ChEMBL document CHEMBL1149505 (Bioorg Med Chem Lett, 2006).

Columns and labels:
[1] = biological target: Neuronal acetylcholine receptor subunit alpha-7 (Rattus norvegicus, UniProt Q05941); experiment: Inhibition of [3H]MLA binding to alpha-7 nAChR in rat brain membrane; type: cell membranes
[2] = biological target: Sodium-dependent dopamine transporter (Rattus norvegicus, UniProt P23977); experiment: Inhibition of [3H]DA uptake at DAT in rat striatal synaptosomes; type: subcellular, Brain
[3] = biological target: Neuronal acetylcholine receptor; alpha4/beta2 (Rattus norvegicus, UniProt P09483+P12390); experiment: Inhibition of [3H]NIC binding to alpha-4-beta-2 nAChR in rat brain membrane; type: cell membranes
[4] = biological target: Sodium-dependent serotonin transporter (Rattus norvegicus, UniProt P31652); experiment: Inhibition of [3H]5-HT uptake at SERT in rat hippocampal synaptosomes; type: subcellular, Hippocampus
[5] = biological target: Synaptic vesicular amine transporter (Rattus norvegicus, UniProt Q01827); experiment: Inhibition of [3H]DTBZ binding to VMAT2 in rat synaptic vesicle membrane; type: cell membranes
Chain of Synaptic vesicular amine transporter (Q01827 whole entry): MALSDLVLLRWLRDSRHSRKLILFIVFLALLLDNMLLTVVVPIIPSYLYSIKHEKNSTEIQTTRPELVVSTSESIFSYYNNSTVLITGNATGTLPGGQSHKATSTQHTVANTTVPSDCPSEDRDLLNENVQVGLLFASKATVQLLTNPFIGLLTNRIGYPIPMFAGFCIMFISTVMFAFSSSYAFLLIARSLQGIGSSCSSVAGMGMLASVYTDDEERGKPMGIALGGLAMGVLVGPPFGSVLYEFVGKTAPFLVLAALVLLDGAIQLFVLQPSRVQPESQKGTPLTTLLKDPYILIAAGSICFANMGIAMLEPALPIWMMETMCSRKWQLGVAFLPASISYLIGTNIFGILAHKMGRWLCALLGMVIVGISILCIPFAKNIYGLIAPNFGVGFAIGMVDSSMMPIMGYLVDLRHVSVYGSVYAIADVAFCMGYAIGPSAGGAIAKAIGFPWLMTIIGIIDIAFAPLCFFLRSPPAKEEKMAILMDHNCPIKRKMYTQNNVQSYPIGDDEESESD

Chain of Neuronal acetylcholine receptor subunit alpha-7 (Q05941 whole entry): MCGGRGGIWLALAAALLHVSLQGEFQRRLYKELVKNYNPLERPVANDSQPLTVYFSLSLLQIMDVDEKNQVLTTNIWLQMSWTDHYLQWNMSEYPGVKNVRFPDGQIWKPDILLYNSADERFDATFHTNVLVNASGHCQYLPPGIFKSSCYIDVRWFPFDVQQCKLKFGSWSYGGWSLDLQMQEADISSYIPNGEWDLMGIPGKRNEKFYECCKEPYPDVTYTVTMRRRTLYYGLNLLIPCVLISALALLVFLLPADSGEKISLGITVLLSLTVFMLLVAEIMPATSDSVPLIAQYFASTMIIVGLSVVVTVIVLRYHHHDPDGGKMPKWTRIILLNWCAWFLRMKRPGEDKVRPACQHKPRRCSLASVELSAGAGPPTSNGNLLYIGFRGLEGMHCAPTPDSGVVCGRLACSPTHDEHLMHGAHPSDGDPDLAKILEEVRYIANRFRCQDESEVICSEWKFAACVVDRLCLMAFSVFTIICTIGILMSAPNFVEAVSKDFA
Chain of Neuronal acetylcholine receptor; alpha4/beta2 (P09483 whole entry): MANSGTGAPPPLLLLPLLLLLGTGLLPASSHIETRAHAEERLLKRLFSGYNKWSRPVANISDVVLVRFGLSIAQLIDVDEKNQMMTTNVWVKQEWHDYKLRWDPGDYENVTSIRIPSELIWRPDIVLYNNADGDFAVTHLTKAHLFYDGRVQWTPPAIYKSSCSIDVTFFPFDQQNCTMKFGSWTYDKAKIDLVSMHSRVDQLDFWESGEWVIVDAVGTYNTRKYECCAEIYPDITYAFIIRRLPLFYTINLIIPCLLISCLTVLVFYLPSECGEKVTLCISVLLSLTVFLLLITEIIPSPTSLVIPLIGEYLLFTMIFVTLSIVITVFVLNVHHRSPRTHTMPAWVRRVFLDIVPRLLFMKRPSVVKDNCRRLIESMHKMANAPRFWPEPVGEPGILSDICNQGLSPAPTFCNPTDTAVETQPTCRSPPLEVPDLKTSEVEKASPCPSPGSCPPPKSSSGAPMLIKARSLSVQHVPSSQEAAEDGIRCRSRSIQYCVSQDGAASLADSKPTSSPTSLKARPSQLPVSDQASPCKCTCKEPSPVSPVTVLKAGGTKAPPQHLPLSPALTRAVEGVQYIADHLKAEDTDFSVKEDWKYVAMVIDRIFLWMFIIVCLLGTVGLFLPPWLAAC
Chain of Neuronal acetylcholine receptor; alpha4/beta2 (P12390 whole entry): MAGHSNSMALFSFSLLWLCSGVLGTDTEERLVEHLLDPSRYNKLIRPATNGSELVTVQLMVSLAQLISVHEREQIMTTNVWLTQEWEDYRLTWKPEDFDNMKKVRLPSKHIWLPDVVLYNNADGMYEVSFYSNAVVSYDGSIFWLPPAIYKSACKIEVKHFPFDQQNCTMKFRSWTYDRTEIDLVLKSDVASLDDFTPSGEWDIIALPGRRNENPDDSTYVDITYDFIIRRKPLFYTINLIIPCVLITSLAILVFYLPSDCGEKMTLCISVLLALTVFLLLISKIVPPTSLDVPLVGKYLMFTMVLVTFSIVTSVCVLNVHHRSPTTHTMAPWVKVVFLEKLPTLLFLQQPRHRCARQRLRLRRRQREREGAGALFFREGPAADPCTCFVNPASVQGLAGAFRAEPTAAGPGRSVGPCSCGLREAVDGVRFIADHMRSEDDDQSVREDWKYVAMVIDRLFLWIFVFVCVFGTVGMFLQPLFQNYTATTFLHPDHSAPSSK
Chain of Sodium-dependent serotonin transporter (P31652 whole entry): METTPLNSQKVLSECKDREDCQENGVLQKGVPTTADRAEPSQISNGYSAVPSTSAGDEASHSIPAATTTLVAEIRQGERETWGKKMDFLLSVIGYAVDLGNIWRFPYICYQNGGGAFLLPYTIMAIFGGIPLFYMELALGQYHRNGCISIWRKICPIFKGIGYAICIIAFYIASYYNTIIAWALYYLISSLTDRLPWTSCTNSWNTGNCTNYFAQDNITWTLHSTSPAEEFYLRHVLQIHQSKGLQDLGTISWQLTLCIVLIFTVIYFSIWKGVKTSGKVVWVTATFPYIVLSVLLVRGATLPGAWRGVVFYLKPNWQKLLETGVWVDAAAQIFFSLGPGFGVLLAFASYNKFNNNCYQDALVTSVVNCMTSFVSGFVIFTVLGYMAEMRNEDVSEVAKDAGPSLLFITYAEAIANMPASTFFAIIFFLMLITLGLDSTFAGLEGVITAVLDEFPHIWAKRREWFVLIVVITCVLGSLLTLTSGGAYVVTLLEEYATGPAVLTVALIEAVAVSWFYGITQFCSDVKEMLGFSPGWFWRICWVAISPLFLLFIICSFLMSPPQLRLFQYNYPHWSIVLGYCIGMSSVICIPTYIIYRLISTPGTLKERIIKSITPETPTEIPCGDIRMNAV
Chain of Sodium-dependent dopamine transporter (P23977 whole entry): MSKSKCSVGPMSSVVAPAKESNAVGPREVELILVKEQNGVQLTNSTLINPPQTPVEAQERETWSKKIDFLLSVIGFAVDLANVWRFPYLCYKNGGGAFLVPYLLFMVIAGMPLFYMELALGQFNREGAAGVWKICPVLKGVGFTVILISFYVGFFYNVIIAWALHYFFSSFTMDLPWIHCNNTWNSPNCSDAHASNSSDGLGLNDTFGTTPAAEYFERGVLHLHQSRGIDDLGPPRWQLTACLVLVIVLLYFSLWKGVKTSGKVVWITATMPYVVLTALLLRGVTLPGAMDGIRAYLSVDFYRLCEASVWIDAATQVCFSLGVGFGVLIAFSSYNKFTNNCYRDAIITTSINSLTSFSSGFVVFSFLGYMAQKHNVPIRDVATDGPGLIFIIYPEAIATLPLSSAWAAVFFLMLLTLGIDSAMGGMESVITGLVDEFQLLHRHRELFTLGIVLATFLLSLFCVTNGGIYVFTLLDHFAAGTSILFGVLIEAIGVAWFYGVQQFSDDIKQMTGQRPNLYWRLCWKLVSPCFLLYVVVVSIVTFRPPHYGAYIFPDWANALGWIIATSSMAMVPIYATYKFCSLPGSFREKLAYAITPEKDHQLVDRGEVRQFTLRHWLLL

CN1[C@@H](CCc2ccccc2)CCC[C@H]1C[C@H](O)c1ccccc1
Ki [1]: 39.3 µM | Ki [2]: 1.39 µM | Ki [3]: 1.77 µM | Ki [4]: 4.27 µM | Ki [5]: 3.09 µM

CN1[C@H](C[C@H](O)c2ccccc2)CCC[C@@H]1/C=C/c1ccccc1
IC50 [1]: > 100 µM | Ki [2]: 0.11 µM | Ki [4]: 19 µM

CN1[C@@H](CCc2ccccc2)CCC[C@H]1C[C@@H](O)c1ccccc1
IC50 [1]: > 100 µM | Ki [2]: 0.57 µM | IC50 [3]: > 100 µM | Ki [4]: 7.3 µM | Ki [5]: 6.6 µM

CN1[C@@H](C[C@H](O)c2ccccc2)CCC[C@H]1/C=C/c1ccccc1
IC50 [1]: > 100 µM | Ki [2]: 0.96 µM | IC50 [3]: > 100 µM | Ki [4]: 3.75 µM

CCC1(O)CC2c3cc(OC)c(OC)cc3CCN2CC1CC(C)C (configuration not stated)
Ki [5]: 0.028 µM

CN1[C@H](C[C@@H](O)c2ccccc2)CCC[C@@H]1/C=C/c1ccccc1
IC50 [1]: > 100 µM | Ki [2]: 0.29 µM | IC50 [3]: > 100 µM | Ki [4]: 7.5 µM

CN1[C@H](CCc2ccccc2)CCC[C@@H]1C[C@H](O)c1ccccc1
IC50 [1]: > 100 µM | Ki [2]: 1.26 µM | Ki [3]: 33.6 µM | Ki [4]: 2.22 µM | Ki [5]: 3.01 µM

CN1[C@@H](C[C@@H](O)c2ccccc2)CCC[C@H]1/C=C/c1ccccc1
Ki [1]: 1.7 µM | Ki [3]: 4.19 µM | Ki [4]: 0.044 µM

CN1[C@H](CCc2ccccc2)CCC[C@@H]1C[C@@H](O)c1ccccc1 [8R-hydroxylobelane]
Ki [1]: 1.21 µM | Ki [2]: 1.88 µM | Ki [3]: 2.36 µM | Ki [4]: 0.15 µM | Ki [5]: 1.98 µM

CN1[C@@H](CC(=O)c2ccccc2)CCC[C@H]1C[C@H](O)c1ccccc1 [LOBELINE]
Ki [2]: 28.2 µM | Ki [4]: 46.8 µM
